According to patent publication US6914045B2, “Glycopeptide antibiotics” (Wyeth Holdings Corporation, priority 2001, dated 2005):

Tests used:
Experiment in all cases: in vitro antibacterial evaluation, MIC by broth dilution
Format in all cases: cell-based
Staphylococcus sp. = conditions: broth dilution, 18 hours at 35° C.
Method in brief: (§1)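 MIC = lowest antibiotic concentration preventing visible growth; inoculum 5×10^5 CFU/mL; drug range 64-0.06 μg/mL; Muller-Hinton II […]; NCCLS M7-A2 guidance.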

Enterococcus sp. = tested on: Enterococcus sp.
Method in brief: as §1

Escherichia coli = tested on: Escherichia coli
Method in brief: as §1

Streptococcus sp. = tested on: Streptococcus sp.
Method in brief: as §1

[1] = inoculum 5×10^5 CFU/mL, strain GC 1131
[2] = Enterococcus avium (GC 4558); broth dilution, 18 hours at 35° C.
[3] = Enterococcus faecalis (ATCC 29212); broth dilution, 18 hours at 35° C.
[4] = Enterococcus faecalis (GC 2242); broth dilution, 18 hours at 35° C.
[5] = Enterococcus faecalis (GC 4552); broth dilution, 18 hours at 35° C.
[6] = Enterococcus faecalis (GC 4553); broth dilution, 18 hours at 35° C.
[7] = Enterococcus faecalis (GC 4554); broth dilution, 18 hours at 35° C.
[8] = Enterococcus faecium (GC 2243); broth dilution, 18 hours at 35° C.
[9] = Enterococcus faecium (GC 4556); broth dilution, 18 hours at 35° C.
[10] = Enterococcus faecium (GC 4557); broth dilution, 18 hours at 35° C.
[11] = Streptococcus agalactiae (GC 4564); broth dilution, 18 hours at 35° C.
[12] = Streptococcus pneumoniae (GC 4565); broth dilution, 18 hours at 35° C.

CC(C)CC1OCC2OC(OC3C(CO)OC(Oc4ccc(CC5NC(=O)C(C(C)c6ccccc6)NC(=O)CNC(=O)C(CO)NC(=O)C(C(O)C6CNC(=N)N6C6OC(CO)C(O)C(O)C6O)NC(=O)C(C(O)C6CNC(=N)N6)NC5=O)cc4)C(O)C3O)C(O)C(O)C2O1 (stereo not drawn) [Example 107, Cyclo[glycyl-β-methylphenylalanyl-O-[4-O-[4,6-O-(3-methylbutylidene)hexopyranosyl]-hexopyranosyl]tyrosyl-3-(2-iminoimidazolidin-4-yl)seryl-3-(3-hexopyranosyl-2-iminoimidazolidin-4-yl)serylseryl]]
8 µg/mL: MIC Enterococcus avium (GC 4558) (Enterococcus sp.; [2]) | MIC Enterococcus faecalis (GC 4553) (Enterococcus sp.; [6]) | MIC Enterococcus faecium (GC 2243) (Enterococcus sp.; [8]) | MIC Enterococcus faecium (GC 2243) (Enterococcus sp.; broth dilution, 18 hours at 35° C.; strain GC 2243) | MIC Enterococcus faecalis (GC 4553) (Enterococcus sp.; broth dilution, 18 hours at 35° C.; strain GC 4553) | MIC Enterococcus avium (GC 4558) (Enterococcus sp.; broth dilution, 18 hours at 35° C.; strain GC 4558)
<0.12 µg/mL: MIC Streptococcus pneumoniae (GC 4565) (Streptococcus sp.; [12]) | MIC Streptococcus pneumoniae (GC 4565) (Streptococcus sp.; broth dilution, 18 hours at 35° C.; strain GC 4565)
4 µg/mL: MIC Enterococcus faecalis (ATCC 29212) (Enterococcus sp.; [3]) | MIC Enterococcus faecalis (GC 2242) (Enterococcus sp.; [4]) | MIC Enterococcus faecalis (GC 4552) (Enterococcus sp.; [5]) | MIC Enterococcus faecalis (GC 4554) (Enterococcus sp.; [7]) | MIC Enterococcus faecium (GC 4556) (Enterococcus sp.; [9]) | MIC Enterococcus faecalis (ATCC 29212) (Enterococcus sp.; broth dilution, 18 hours at 35° C.; strain ATCC 29212) | MIC Enterococcus faecalis (GC 2242) (Enterococcus sp.; broth dilution, 18 hours at 35° C.; strain GC 2242) | MIC Enterococcus faecalis (GC 4552) (Enterococcus sp.; broth dilution, 18 hours at 35° C.; strain GC 4552) | MIC Enterococcus faecalis (GC 4554) (Enterococcus sp.; broth dilution, 18 hours at 35° C.; strain GC 4554) | MIC Enterococcus faecium (GC 4556) (Enterococcus sp.; broth dilution, 18 hours at 35° C.; strain GC 4556)
64 µg/mL: MIC Escherichia coli (ATCC 25922) (Escherichia coli; 18 hours at 35° C., strain ATCC 25922)
2 µg/mL: MIC Staphylococcus aureus (GC 1131) (Staphylococcus sp.) | MIC Staphylococcus aureus (GC 4541) (Staphylococcus sp.) | MIC Staphylococcus aureus (GC 4544) (Staphylococcus sp.) | MIC Staphylococcus aureus (GC 1131) (Staphylococcus sp.; [1]) | MIC Staphylococcus aureus (GC 4541) (Staphylococcus sp.; strain GC 4541) | MIC Staphylococcus aureus (GC 4544) (Staphylococcus sp.; strain GC 4544) | MIC Enterococcus faecium (GC 4557) (Enterococcus sp.; [10]) | MIC Enterococcus faecium (GC 4557) (Enterococcus sp.; broth dilution, 18 hours at 35° C.; strain GC 4557)
0.25 µg/mL: MIC Streptococcus agalactiae (GC 4564) (Streptococcus sp.; [11]) | MIC Streptococcus pyogenes (ID-3187) (Streptococcus sp.; Streptococcus pyogenes (ID-3187); broth dilution, 18 hours at 35° C.) | MIC Streptococcus agalactiae (GC 4564) (Streptococcus sp.; broth dilution, 18 hours at 35° C.; strain GC 4564) | MIC Streptococcus pyogenes (ID-3187) (Streptococcus sp.; broth dilution, 18 hours at 35° C.; strain ID-3187)
1 µg/mL: MIC Coagulase Negative Staphylococcus (GC 4547) (Staphylococcus sp.) | MIC Coagulase Negative Staphylococcus (GC 4548) (Staphylococcus sp.) | MIC Coagulase Negative Staphylococcus (GC 4549) (Staphylococcus sp.) | MIC Coagulase Negative Staphylococcus (GC 4551) (Staphylococcus sp.) | MIC Coagulase Negative Staphylococcus (ID-3941) (Staphylococcus sp.) | MIC Staphylococcus aureus (ATCC 29213) (Staphylococcus sp.) | MIC Staphylococcus aureus (GC 4542) (Staphylococcus sp.) | MIC Staphylococcus aureus (GC 4545) (Staphylococcus sp.) | MIC Staphylococcus aureus-SMITH (GC 4543) (Staphylococcus sp.) | MIC Staphylococcus haemolyticus (GC 4546) (Staphylococcus sp.) | MIC Staphylococcus aureus (ATCC 29213) (Staphylococcus sp.; strain ATCC 29213) | MIC Staphylococcus aureus (GC 4542) (Staphylococcus sp.; strain GC 4542) | MIC Staphylococcus aureus (GC 4545) (Staphylococcus sp.; strain GC 4545) | MIC Staphylococcus haemolyticus (GC 4546) (Staphylococcus sp.; strain GC 4546) | MIC Coagulase Negative Staphylococcus (GC 4547) (Staphylococcus sp.; strain GC 4547) | MIC Coagulase Negative Staphylococcus (GC 4548) (Staphylococcus sp.; strain GC 4548) | MIC Coagulase Negative Staphylococcus (GC 4549) (Staphylococcus sp.; strain GC 4549) | MIC Coagulase Negative Staphylococcus (GC 4551) (Staphylococcus sp.; strain GC 4551) | MIC Coagulase Negative Staphylococcus (ID-3941) (Staphylococcus sp.; strain ID-3941) | MIC Staphylococcus aureus-SMITH (GC 4543) (Staphylococcus sp.; strain SMITH GC 4543)

CC(c1ccccc1)C1NC(=O)CNC(=O)C(CO)NC(=O)C(C(O)C2CNC(=N)N2C2OC(CO)C(O)C(O)C2O)NC(=O)C(C(O)C2CNC(=N)N2)NC(=O)C(Cc2ccc(OC3OC(CO)C(OC4OC5COC(c6cccc(Cl)c6)OC5C(O)C4O)C(O)C3O)cc2)NC1=O (stereo not drawn) [Example 138, Cyclo[glycyl-β-methylphenylalanyl-O-[4-O-[4,6-O-(3-chlorobenzylidene)hexopyranosyl]-hexopyranosyl]tyrosyl-3-(2-iminoimidazolidin-4-yl)seryl-3-(3-hexopyranosyl-2-iminoimidazolidin-4-yl)serylseryl]]
8 µg/mL: MIC Enterococcus faecalis (GC 2691) (Enterococcus sp.; Enterococcus faecalis (GC 2691); broth dilution, 18 hours at 35° C.) | MIC Enterococcus faecalis (GC 4553) (Enterococcus sp.; [6]) | MIC Enterococcus faecalis (GC 4554) (Enterococcus sp.; [7]) | MIC Enterococcus faecium (GC 4556) (Enterococcus sp.; [9]) | MIC Enterococcus faecalis (GC 2691) (Enterococcus sp.; strain GC 2691; broth dilution, 18 hours at 35° C.) | MIC Enterococcus faecalis (GC 4553) (Enterococcus sp.; strain GC 4553; broth dilution, 18 hours at 35° C.) | MIC Enterococcus faecalis (GC 4554) (Enterococcus sp.; strain GC 4554; broth dilution, 18 hours at 35° C.) | MIC Enterococcus faecium (GC 4556) (Enterococcus sp.; strain GC 4556; broth dilution, 18 hours at 35° C.)
0.5 µg/mL: MIC Escherichia coli (GC 4560) (Escherichia coli; strain GC 4560, 18 hours at 35° C.)
<0.06 µg/mL: MIC Streptococcus pneumoniae (ATCC 6301) (Streptococcus sp.; Streptococcus pneumoniae (ATCC 6301); broth dilution, 18 hours at 35° C.) | MIC Streptococcus pneumoniae (GC 1894) (Streptococcus sp.; Streptococcus pneumoniae (GC 1894); broth dilution, 18 hours at 35° C.) | MIC Streptococcus pneumoniae (GC 4565) (Streptococcus sp.; [12]) | MIC Streptococcus pneumoniae (ATCC 6301) (Streptococcus sp.; strain ATCC 6301; broth dilution, 18 hours at 35° C.) | MIC Streptococcus pneumoniae (GC 1894) (Streptococcus sp.; strain GC 1894; broth dilution, 18 hours at 35° C.) | MIC Streptococcus pneumoniae (GC 4565) (Streptococcus sp.; strain GC 4565; broth dilution, 18 hours at 35° C.)
1 µg/mL: MIC Staphylococcus aureus-SMITH (GC 4543) (Staphylococcus sp.; strain GC 4543) | MIC Coagulase Negative Staphylococcus (GC 4548) (Staphylococcus sp.; strain GC 4548) | MIC Coagulase Negative Staphylococcus (GC 4549) (Staphylococcus sp.; strain GC 4549) | MIC Staphylococcus aureus-SMITH (GC 4543) (Staphylococcus sp.; strain SMITH GC 4543)
0.25 µg/mL: MIC Streptococcus pyogenes (GC 4563) (Streptococcus sp.; Streptococcus pyogenes (GC 4563); broth dilution, 18 hours at 35° C.) | MIC Streptococcus pyogenes (GC 4563) (Streptococcus sp.; strain GC 4563; broth dilution, 18 hours at 35° C.)
2 µg/mL: MIC Staphylococcus aureus (GC 1131) (Staphylococcus sp.; [1]) | MIC Staphylococcus aureus (ATCC 29213) (Staphylococcus sp.; strain ATCC 29213) | MIC Staphylococcus aureus (GC 1131) (Staphylococcus sp.; strain GC 1131) | MIC Staphylococcus aureus (GC 3051) (Staphylococcus sp.; strain GC 3051) | MIC Staphylococcus aureus (GC 3053) (Staphylococcus sp.; strain GC 3053) | MIC Staphylococcus aureus (GC 4541) (Staphylococcus sp.; strain GC 4541) | MIC Staphylococcus aureus (GC 4542) (Staphylococcus sp.; strain GC 4542) | MIC Staphylococcus aureus (GC 4544) (Staphylococcus sp.; strain GC 4544) | MIC Staphylococcus aureus (GC 4545) (Staphylococcus sp.; strain GC 4545) | MIC Staphylococcus haemolyticus (GC 4546) (Staphylococcus sp.; strain GC 4546) | MIC Coagulase Negative Staphylococcus (GC 4551) (Staphylococcus sp.; strain GC 4551) | MIC Coagulase Negative Staphylococcus (GC 6257) (Staphylococcus sp.; strain GC 6257) | MIC Enterococcus faecium (GC 4557) (Enterococcus sp.; [10]) | MIC Enterococcus faecium (GC 4557) (Enterococcus sp.; strain GC 4557; broth dilution, 18 hours at 35° C.)
64 µg/mL: MIC Escherichia coli (ATCC 25922) (Escherichia coli; strain ATCC 25922, 18 hours at 35° C.) | MIC Escherichia coli (GC 4559) (Escherichia coli; strain GC 4559, 18 hours at 35° C.)
4 µg/mL: MIC Coagulase Negative Staphylococcus (GC 4547) (Staphylococcus sp.; strain GC 4547) | MIC Enterococcus avium (GC 4558) (Enterococcus sp.; [2]) | MIC Enterococcus faecalis (ATCC 29212) (Enterococcus sp.; [3]) | MIC Enterococcus faecalis (GC 2242) (Enterococcus sp.; [4]) | MIC Enterococcus faecalis (GC 3059) (Enterococcus sp.; Enterococcus faecalis (GC 3059); broth dilution, 18 hours at 35° C.) | MIC Enterococcus faecalis (GC 4552) (Enterococcus sp.; [5]) | MIC Enterococcus faecalis (GC 6189) (Enterococcus sp.; Enterococcus faecalis (GC 6189); broth dilution, 18 hours at 35° C.) | MIC Enterococcus faecium (GC 2243) (Enterococcus sp.; [8]) | MIC Enterococcus faecalis (ATCC 29212) (Enterococcus sp.; strain ATCC 29212; broth dilution, 18 hours at 35° C.) | MIC Enterococcus faecalis (GC 2242) (Enterococcus sp.; strain GC 2242; broth dilution, 18 hours at 35° C.) | MIC Enterococcus faecium (GC 2243) (Enterococcus sp.; strain GC 2243; broth dilution, 18 hours at 35° C.) | MIC Enterococcus faecalis (GC 3059) (Enterococcus sp.; strain GC 3059; broth dilution, 18 hours at 35° C.) | MIC Enterococcus faecalis (GC 4552) (Enterococcus sp.; strain GC 4552; broth dilution, 18 hours at 35° C.) | MIC Enterococcus avium (GC 4558) (Enterococcus sp.; strain GC 4558; broth dilution, 18 hours at 35° C.) | MIC Enterococcus faecalis (GC 6189) (Enterococcus sp.; strain GC 6189; broth dilution, 18 hours at 35° C.)
0.12 µg/mL: MIC Streptococcus agalactiae (GC 4564) (Streptococcus sp.; [11]) | MIC Streptococcus agalactiae (GC 4564) (Streptococcus sp.; strain GC 4564; broth dilution, 18 hours at 35° C.)
